How the values were obtained:
CD148 = target: T1, CD148 (Mus musculus, UniProt Q64455); test: CD148 pull down from EC lysates with GST fusion protein coated beads, Western blot; assay type: binding; settings: protein-coated beads as bait
T1 construct: endogenous in cells; bEND3.1 cells
T1 sequence (Q64455 29-1238): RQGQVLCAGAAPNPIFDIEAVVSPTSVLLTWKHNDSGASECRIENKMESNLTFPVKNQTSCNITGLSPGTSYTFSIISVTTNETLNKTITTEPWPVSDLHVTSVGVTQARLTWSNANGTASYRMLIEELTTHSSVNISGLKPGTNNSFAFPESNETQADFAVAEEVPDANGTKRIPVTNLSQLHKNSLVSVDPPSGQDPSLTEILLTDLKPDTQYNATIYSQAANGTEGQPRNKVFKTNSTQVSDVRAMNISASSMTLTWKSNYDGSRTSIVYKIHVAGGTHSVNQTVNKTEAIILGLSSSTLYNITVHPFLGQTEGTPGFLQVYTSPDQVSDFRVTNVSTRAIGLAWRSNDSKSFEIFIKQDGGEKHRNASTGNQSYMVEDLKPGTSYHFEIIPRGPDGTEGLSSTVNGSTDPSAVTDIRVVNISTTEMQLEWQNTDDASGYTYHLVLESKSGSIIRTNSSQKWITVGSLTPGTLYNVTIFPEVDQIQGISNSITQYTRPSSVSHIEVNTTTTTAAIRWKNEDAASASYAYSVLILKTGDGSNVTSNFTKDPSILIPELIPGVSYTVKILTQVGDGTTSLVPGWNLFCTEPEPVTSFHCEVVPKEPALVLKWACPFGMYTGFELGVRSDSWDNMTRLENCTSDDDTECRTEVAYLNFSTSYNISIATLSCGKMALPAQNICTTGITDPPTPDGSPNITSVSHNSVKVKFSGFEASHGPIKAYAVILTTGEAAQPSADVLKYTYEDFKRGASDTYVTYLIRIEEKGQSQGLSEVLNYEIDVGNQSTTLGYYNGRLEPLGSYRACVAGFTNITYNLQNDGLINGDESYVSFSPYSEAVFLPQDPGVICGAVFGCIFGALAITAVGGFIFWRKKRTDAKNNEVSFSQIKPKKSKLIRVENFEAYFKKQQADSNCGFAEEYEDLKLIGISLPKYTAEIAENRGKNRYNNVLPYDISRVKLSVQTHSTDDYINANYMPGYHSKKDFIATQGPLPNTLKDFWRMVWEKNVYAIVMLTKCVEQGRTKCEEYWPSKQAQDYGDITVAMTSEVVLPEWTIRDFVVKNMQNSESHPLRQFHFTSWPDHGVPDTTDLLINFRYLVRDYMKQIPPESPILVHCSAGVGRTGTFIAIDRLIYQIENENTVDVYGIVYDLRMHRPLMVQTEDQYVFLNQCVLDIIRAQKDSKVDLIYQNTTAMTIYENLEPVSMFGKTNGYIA
Method: (A) bEND3.1, MLEC and sEND cells express CD148. Western blot of lysates from the EC lines indicated were probed with antibodies to CD148 or β-tubulin. (B) CD148 interacts with murine syndecan extracellular core protein (S2ED). Cell lysates from sEND cells were incubated with beads coated with GST(control), S2ED, S2EDΔP^124-F^141 or S2EDΔL^73-G^123. Precipitates were analysed by Western blot for the presence of CD148. CD148 was only pulled down by forms of S2ED which contain the C-terminal 18 amino acid adhesion regulatory domain. Blot is representative of 4 experiments.
In fibroblasts the protein tyrosine phosphatase receptor CD148 interacts directly with the adhesion regulatory domain of S2ED leading to β1 integrin mediated cell attachment and spreading (Whiteford et al., 2011 Mol Biol Cell, 22(19):3609-24). To determine whether CD148 is a mediator for EC responses to S2ED the expression of CD148 on ECs from brain, lung and skin was confirmed.
CD148 pulldown and Western blot: Confluent bEND3.1 cells were lysed in 1% tritonx100 in TBS containing HALT protease and phosphatase inhibitors (Pierce). GST and S2ED were bound to glutathione-sepharose beads (GE Healthcare) and were added to cell lysates and incubated for 1 hour. Beads were isolated by centrifugation and washed twice in TBS, prior to incubation in Laemmli buffer and analysis by Western blot using standard procedures.

brain ECs = test: Scratch wound migration assay on brain ECs with murine syndecan-2 GST fusion proteins; assay type: cell-based; settings: 0.5 μM fusion protein, vs GST alone
Method: Scratch wound migration assays were performed in the presence of 0.5 μM of the fusion proteins indicated on brain ECs. Cell migration is measured by time lapse microscopy using an Olympus IX81 microscope with a controlled environment chamber set at 37° C., 10% CO2. Images were captured every 30 minutes using a Hamamatsu Orca ER digital camera and processed using Cell^M software (Olympus). (A) Phase contrast images 9 hours after the scratch was made. (B) EC migration speed is reduced in the presence of S2ED proteins containing the 18aa regulatory domain. Cell speed data represents mean measurements from at least 25 individual cells at the leading edge per treatment.
Migration assays were also performed on brain ECs in the presence of murine syndecan-2 GST fusion proteins—either S2ED or the truncated forms of this protein (S2EDΔP^124-F^141 and S2EDΔL^73-G^123).
Scratch wound migration assays: Scratch wound migration assays were performed on confluent monolayers of ECs. Wounds were made using a pipette tip, and fusion proteins were added to the medium and images were captured every 30 minutes for 12 hours by time lapse microscopy using an Olympus IX81 microscope. Percentage wound closure was calculated and individual cells tracked using Image J.

[1] = test system: Rat aortas (aortic ring sections); test: Rat aortic ring angiogenic sprouting assay in collagen I matrices; assay type: cell-based; settings: 0.5 μM in collagen I matrix; rat aortic rings; vs untreated and GST controls
Method: (A) Diagram of the murine syndecan-2 mutant proteins used in this study. (B) Rat aortas were seeded in collagen I matrices as above containing 0.5 μM of GST(control), S2ED or the mutant forms of S2ED. Sprouts from 8 rings per condition were counted and the mean calculated. Error bars represent the SEM and significance was calculated using a one way ANOVA with Bonferroni multiple comparison (p***<0.005, p****<0.0001).
In another assay with murine peptides, full length S2ED, S2EDΔP^124-F^141 (lacking adhesion regulatory domain) or S2EDΔL^73-G^123 (truncated form containing only the adhesion regulatory residues) were incorporated into collagen matrices in which aortic ring sections were embedded (FIGS. 4A and B).
Aortic ring assay: Thoracic aortas dissected from cervically dislocated 180-200 g male wistar rats (Harlan Laboratories) or 6 week old C57BL/6 mice (Charles River) were sliced into 0.5 mm sections and incubated overnight in serum free OptiMEM (Invitrogen) at 37° C. […] Angiogenic sprouts from rat and mouse aortas were counted after 4 days and 8 days respectively (Method based on that of Nicosia and Ottinetti (Laboratory Investigation 63:115-122, 1990) and modified in De Rossi et al. (Journal of Genetic Syndromes & Gene Therapy 4, 2013).

Row | Pull-down of CD148 from EC lysates (CD148) | Substance | EC cell migration (wound closure) (brain ECs) | Angiogenic sprout formation [1]
1 | No CD148 was evident | S2EDΔP^124-F^141: murine syndecan-2 GST fusion mutant lacking adhesion regulatory domain (SEQ ID NO 4) | did not affect cell migration | –
2 | successfully pull-down CD148 | S2ED: murine syndecan-2 extracellular core protein, full length, GST fusion protein (SEQ ID NO 3) | inhibited EC cell migration | severely compromised
3 | successfully pull-down CD148 | S2EDΔL^73-G^123: truncated murine syndecan-2 GST fusion protein containing only the adhesion regulatory residues (SEQ ID NO 5) | inhibited EC cell migration | severely compromised

Reference: patent US10766942B2, “Fragments of syndecan-2 having anti-angiogenic activity” (Queen Mary University of London, priority 2014, dated 2020)
